A word on the melting point: it is the temperature of the solid-liquid transition. As to `COC1CCN(c2cc(NC(=O)OC(C)(C)C)c([N+](=O)[O-])cc2C#Cc2ccccc2)CC1`, the melting point was in the range of 147 to 150 °C.

Regarding `O=C1NC(=O)C(SCCO)=C1SCCO`, the melting point is 46 to 50 °C.

`CCOC(=O)c1cn(C2CC2)c2nc(N3C[C@@H](CN)[C@@H](Cl)C3)c(F)cc2c1=O` (relative stereo): the melting point was in the range of 163 to 167 °C.

As for `CCOC(=O)c1ccc(NC(=O)C=Cc2ccc(Cl)cc2)cc1`, the melting point fell in the range of 203 to 204 °C.

Compound `CC(C)(C)c1ccccc1N1CCN(C(=O)c2ccccc2)CC1` displayed a melting point of 104 to 106 °C.

Regarding `CSc1ccc(NC(=O)Nc2cc(-c3c(-c4ccc(F)c(C)c4)nc4cccnn34)ccn2)cc1`, the melting point lay in the range of 219 to 220 °C.

`CN1CCN(C(=O)c2ccccc2C(c2ccc(O)cc2)c2ccc(O)cc2)CC1`: the melting point was in the range of 226 to 231 °C.

Turning to `O[C@@H]1CNC[C@H]1Oc1ccccc1` (relative stereo), the melting point was 120 to 122 °C.

`Cc1[nH]c(=O)[nH]c1C(=O)c1ccccc1` displayed a melting point of 250 to 254 °C.

Consider `CCc1c(OC)nc2nc(C(N)=O)cn2c1C`, for which the melting point was in the range of 256 to 259 °C.

`COC(=O)Cc1ccc(CNC(=O)C2Cc3ccccc3N2S(=O)(=O)c2ccc(-c3ccc(F)cc3OC)cc2)cc1` (configuration not stated) came in with a melting point of 77 to 79 °C.

As for `CCOC(=O)CC(NC(=O)c1cc(NC(=O)OC(C)(C)C)cc(OCc2ccccc2)c1)c1ccccc1` (racemic), the melting point is 115 °C.

For the compound `CCc1cc(CC)c2sc3ccccc3c(=O)c2c1`, the melting point is 60 °C.

The compound `Cc1csc(C(=O)CCl)c1` gave a melting point of 76 to 77 °C.

Turning to `CCC(CC)(CCC#N)C(NC(=O)c1ccc(Cl)cc1)Nc1c(Nc2cccnc2)c(=O)c1=O` (configuration not stated), the melting point was in the range of 242 to 243 °C.

With `Cc1cc(F)c(Nc2ncnc3cc(O)ccc23)cc1O`, the melting point lay in the range of 274 to 278 °C.

For the compound `Cc1cc(C)c2c(n1)CC(c1ccccc1)CC2=O` (configuration not stated), the melting point lay within 97 to 99 °C.

The compound `Clc1ccc(-c2nc(COCc3ccccc3)ns2)nn1` returned a melting point of 109 to 110 °C.

In turn, `CC(OCc1ccc(Cl)c2ccccc12)(C(=O)O)C(F)(F)F` (configuration not stated) yielded a melting point of 120 to 121 °C.

Regarding `NC(=O)c1nc(-c2ccc(Cl)cc2Cl)c(-c2ccc(Cl)cc2)s1`, the melting point fell in the range of 195 to 198 °C.

The compound `CCC(=O)c1c(O)c(CNC(C)=O)cc2c1CCCC2` showed a melting point of 136 to 140 °C.

`Clc1ccc2c(-n3cc(Cl)cn3)ccnc2c1` showed a melting point of 110 to 114 °C.

In turn, `N#Cc1cc(Cc2ccccc2Cl)ccc1N` yielded a melting point of 79 to 80 °C.

Consider `CN1CCc2c(-c3ccc(F)cc3)c(C(=O)N(C)Cc3cc(C(F)(F)F)cc(C(F)(F)F)c3)n(C)c(=O)c2C1`, for which the melting point was 156 to 157 °C.

Compound `COC(=O)Cn1c(Cc2ccccc2)ccc(NC(=O)CCCc2ccccc2)c1=O` displayed a melting point of 93 to 95 °C.

Take `CC(=O)OCc1cc2c3ccccc3[nH]c(=O)n2n1`: the melting point lay within 177 to 179 °C.

In turn, `O=C(O)c1ccc(C(=O)c2cccnc2)cc1` showed a melting point of 266 to 267 °C.

The compound `CC(=O)Nc1c(C(=O)c2cccc(F)c2)[nH]c2cc(Cl)ccc12` yielded a melting point of 201 to 202 °C.

In turn, `CCc1coc(Cc2ccc([N+](=O)[O-])cc2)n1` registered a melting point of 58 to 59 °C.

For the compound `COc1ccccc1N1CCN(C2CCN(c3csc4ccccc34)CC2)CC1`, the melting point fell in the range of 156 to 158 °C.

The compound `CCn1ccc(=O)[nH]c1=O` registered a melting point of 150 °C.

`C=CCCOc1ccc(C(=O)Oc2ccc3ccc(=O)oc3c2)cc1`: the melting point lay within 108 to 109 °C.

As to `O=CN(O)C(CS(=O)(=O)c1ccc(-c2ccc(C(F)(F)F)cc2)cc1)c1ccccn1` (configuration not stated), the melting point is 168 to 169 °C.

In turn, `CC(C)Cn1c(=O)[nH]c(=O)c2cc(Cc3cccc4ccccc34)sc21` yielded a melting point of 189 to 190 °C.

`CCOC(=O)c1c(CCCn2cncn2)nc2cc(OC)c(OC)cc2c1-c1ccc(OC)c(OC)c1`: the melting point fell in the range of 141 to 142 °C.

In the case of `COc1cc(C(C)=NO)ccc1OCCCN1CCC(c2noc3cc(F)ccc23)CC1`, the melting point is 168 to 170 °C.

Regarding `Fc1cccnc1N1CCN(Cc2nc3ccccc3[nH]2)CC1`, the melting point was 210 to 212 °C.

The compound `COP(=S)(OC)Oc1nc(F)c(Cl)cc1Cl` came in with a melting point of under 20 °C.

`Cc1nc(N2CCN(Cc3ccc(C(F)(F)F)cc3)C2=O)sc1-c1cnco1`: the melting point was 160 to 162 °C.

As for `OC(CCCCCCCCOCc1ccccc1)c1ccc(OCc2ccccc2)c(OCc2ccccc2)c1` (configuration not stated), the melting point was 46 to 48 °C.

Compound `COc1ccc(-c2noc3c2C(c2cc(OC)c(OC)c(OC)c2)C2=C(COC2=O)N3)cc1` (configuration not stated) returned a melting point of 218 to 219 °C.

Consider `COc1cc(C2OCC(C)(C)C2(O)C(C)(C)C)cc(OC)c1Br` (configuration not stated), for which the melting point was 130 to 131 °C.

On to `N#Cc1c2ccccc2c(-c2ccc(O[C@H](Cc3ccccc3)C(=O)O)cc2)c2c1sc1ccccc12`, for which the melting point was in the range of 145 to 148 °C.

Consider `CCOC(=O)c1cnc2c(C)csc2c1Cl`, for which the melting point fell in the range of 113 to 115 °C.

Regarding `CCCc1c(S)ccc2c(=O)cc(C(=O)O)oc12`, the melting point lay in the range of 206 to 208 °C.

`COC1=C(OC)C(=O)C(CCCCCCCCCCCCCCCCCCCCCCO)=C(C)C1=O` had a melting point of 89 to 90.5 °C.

For the compound `CC(C)(Oc1ccc(NC(=O)Oc2ccc(Cl)cc2)cc1)C(=O)O`, the melting point was in the range of 179 to 182 °C.

`Cc1nn(CC(=O)c2ccc(Cl)cc2)c(=O)n1-c1ccc(N2CCN(c3ccc(O)cc3)CC2)cc1` had a melting point of 252 °C.

The compound `O=C(O)c1cccc2c(Cl)c3ccccc3cc12` gave a melting point of 275 to 277 °C.

`COc1ccc(CNc2nnc(Cl)c3cc(Cl)ccc23)cc1Cl` gave a melting point of 168 to 170 °C.

The compound `CCCc1nn(C)c2c(=O)[nH]c(-c3cc(CCCN)ccc3OCC)nc12` displayed a melting point of 115 to 117 °C.

For `CCCn1cnc(CO)c1C`, the melting point was in the range of 88 to 88.5 °C.

In the case of `CCc1cc(CNc2nc3ccccc3o2)c(=S)[nH]c1C`, the melting point lay in the range of 238 to 240 °C.

Take `COc1ccc(C(=O)c2c(F)cccc2F)c(Cl)c1Cl`: the melting point lay in the range of 94 to 96 °C.

Consider `COC(=O)CCc1conc1-c1ccc(F)c(Br)c1`, for which the melting point is 57 to 58 °C.

Regarding `CCOC(=O)c1ncc2[nH]c3cccc(Oc4ccccc4)c3c2c1COC`, the melting point was 174 to 176 °C.

As to `COc1cc2c(cc1O)CC(C)(C)N=C2`, the melting point lay in the range of 152 to 157 °C.

As for `Cc1c(N(C)C)n2c(cc1=O)CCCC2`, the melting point is over 240 °C.

For the compound `O=C(Nc1cc(F)ccc1F)c1cc(-c2ccc(F)cc2F)ccc1O`, the melting point was in the range of 213 to 214 °C.

For the compound `COc1ccc(C=CS(=O)(=O)Cl)cc1`, the melting point lay within 65 to 67 °C.

Regarding `CCOC(=O)N1CCN(c2c(F)cc([N+](=O)[O-])c(NC3CC3)c2C)CC1`, the melting point is 97 to 98 °C.

Compound `CCOC(=O)C(C)Oc1ccc(Nc2cnc3cc(Cl)ccc3n2)cc1` (configuration not stated) had a melting point of 136 °C.

Consider `CN1C2CCC1CC(NC(=O)c1cc(Cl)cc3oc(-c4ccccc4)nc13)C2` (configuration not stated), for which the melting point is 187 to 190 °C.

On to `O=C1C(=CO)C(c2ccc(Cl)cc2Cl)c2c(Cl)cc(Cl)cc21` (configuration not stated), for which the melting point was 189 to 191 °C.

The compound `CCC(=NNC(=O)OC(C)(C)C)c1ccncc1` came in with a melting point of 170 °C.

Compound `N#CC=Cc1cccc(Cl)c1F` returned a melting point of 90 to 92 °C.

Consider `CC(=O)OCCN1CCSc2ccc(Nc3ncc(Cl)c(N[C@@H]4CCCC[C@H]4NS(C)(=O)=O)n3)cc2C1`, for which the melting point is 85 to 90 °C.

In turn, `ClC(Cl)(Cl)C1Nc2ccccc2CO1` (configuration not stated) had a melting point of 90 to 92 °C.

`Cc1csc(N2CCN(Cc3ccc(C(=O)Nc4ccc(F)cc4)cc3)C2=O)n1`: the melting point fell in the range of 206 to 207 °C.

For the compound `CCCOc1ccc(-c2ccc3c(c2)C=C(C(=O)Nc2ccc(C(O)c4ccccn4)cc2)CCS3(=O)=O)cc1` (configuration not stated), the melting point lay within 208 to 210 °C.

For the compound `CCC(C)Nc1ccc2n[nH]c(=O)n2n1` (configuration not stated), the melting point is 214 to 216 °C.

`CCOC(=O)C[C@H](NC(=O)/C=C/C(=O)c1ccccc1)C(=O)OCC`: the melting point is 91 to 93 °C.

Compound `CCOC(=O)c1sc2[nH]c(=O)c(=O)[nH]c2c1CC` had a melting point of over 300 °C.

For `COCCNC(=O)c1c(O)c2cc(Cl)ccc2n(C)c1=N`, the melting point is 209 to 211 °C.

For the compound `C/C=C/c1cc(OC)c2oc(-c3ccc(O)c(OC)c3)c(CO)c2c1`, the melting point lay within 175 to 179 °C.

`COc1ccc(C2C(C#N)=C(N)OC3=C2C(=O)CC(C)(C)C3)cc1` (configuration not stated) came in with a melting point of 197 to 200 °C.

The compound `COC(=O)c1nc(-c2csc3ccc(C)cc23)nc(N)c1Cl` yielded a melting point of 164 to 165 °C.

In the case of `O=c1c2ccccc2sc2ccc(O)cc12`, the melting point is 232 to 241 °C.

Take `O=C1CN(C/C=C/c2ccc(Cl)cc2)CCN1c1cc(F)ccc1[N+](=O)[O-]`: the melting point worked out at 57 °C.

In the case of `CCOC(=O)c1cnc2ccc(CC)nc2c1Cl`, the melting point fell in the range of 94 to 96 °C.

On to `OCCN1CCN(C(c2ccccc2)(c2ccccc2)c2ccccc2)CC1`, for which the melting point was 82 °C.

Compound `Cn1ncc(-c2ccccn2)c1S(N)(=O)=O` displayed a melting point of 113 to 114 °C.

As to `COC(=O)CCc1cnoc1-c1ccc(F)cc1F`, the melting point lay within 40 to 41 °C.

Take `COc1ccc(C2=NO[C@](CO)(CCO)C2)cc1OC1CCCC1`: the melting point lay within 108 to 109 °C.

`O=C(O)c1ncc2[nH]c3ccccc3c2n1` yielded a melting point of 187 to 189 °C.

For `CCCCCS(=O)(=O)NC(=O)CCc1ccc(OCC(=O)N(CC)CC)cc1Oc1ncc(C(F)(F)F)cc1Cl`, the melting point was 111 to 113 °C.

`O=C(O)Cc1ccc(CCl)cc1` registered a melting point of 147 to 149 °C.

On to `COc1ccc(OC)c2c1C[C@](C)(O)CC21SCCS1`, for which the melting point lay within 152 to 153 °C.

With `N[C@@H](Cc1cn(Cc2ccccc2)cn1)C(=O)O`, the melting point lay within 234 to 238 °C.

`C=C(C(=O)c1ccc(OCC(=O)O)c(Cl)c1Cl)C(C)(C)C` had a melting point of 160 to 162 °C.

`OCCC1Cc2ccccc2C1O` (configuration not stated): the melting point was 80 to 82 °C.

`CCCCC(Cc1cc(C(C)(C)C)c(O)c(C(C)(C)C)c1)(C(=O)OC1CC(C)(C)N(OC)C(C)(C)C1)C(=O)OC1CC(C)(C)N(OC)C(C)(C)C1` displayed a melting point of 111 to 113 °C.

The values above are taken from a melting point compilation (Tetko et al.; mined from patent text by program, amines drawn as free bases though some values may be those of a salt).
